The NIST ThermoML archive (doi:10.1021/je034087q)
Numbers after ± are expanded uncertainties.

Assay: xn = mol fraction of the nth substance listed
Details: 323.15 K, Fluid (supercritical or subcritical phases)

CC(C)=O [acetone] + O=C=O
mass density (9680 kPa, x2 = 0.952): 588 ± 4 kg/m3
mass density (9710 kPa, x2 = 0.902): 707 ± 4 kg/m3
mass density (9750 kPa, x2 = 0.933): 656 ± 4 kg/m3
mass density (9750 kPa, x2 = 0.952): 594 ± 4 kg/m3
mass density (9840 kPa, x2 = 0.948): 625 ± 4 kg/m3
mass density (9850 kPa, x2 = 0.952): 603 ± 4 kg/m3
mass density (9870 kPa, x2 = 0.902): 711 ± 4 kg/m3
mass density (9900 kPa, x2 = 0.811): 790 ± 5 kg/m3
mass density (9900 kPa, x2 = 0.882): 743 ± 5 kg/m3
mass density (9900 kPa, x2 = 0.933): 664 ± 4 kg/m3
mass density (9940 kPa, x2 = 0.952): 611 ± 4 kg/m3
mass density (9960 kPa, x2 = 0.772): 803 ± 5 kg/m3
mass density (10020 kPa, x2 = 0.902): 715 ± 4 kg/m3
mass density (10030 kPa, x2 = 0.948): 638 ± 4 kg/m3
mass density (10050 kPa, x2 = 0.933): 669 ± 4 kg/m3
mass density (10100 kPa, x2 = 0.952): 623 ± 4 kg/m3
mass density (10160 kPa, x2 = 0.902): 719 ± 4 kg/m3
mass density (10220 kPa, x2 = 0.933): 678 ± 4 kg/m3
mass density (10290 kPa, x2 = 0.882): 748 ± 5 kg/m3
mass density (10290 kPa, x2 = 0.948): 651 ± 4 kg/m3
mass density (10320 kPa, x2 = 0.952): 636 ± 4 kg/m3
mass density (10360 kPa, x2 = 0.902): 722 ± 5 kg/m3
mass density (10420 kPa, x2 = 0.933): 684 ± 4 kg/m3
mass density (10440 kPa, x2 = 0.576): 818 ± 5 kg/m3
mass density (10490 kPa, x2 = 0.811): 796 ± 5 kg/m3
mass density (10540 kPa, x2 = 0.772): 807 ± 5 kg/m3
mass density (10570 kPa, x2 = 0.902): 727 ± 5 kg/m3
mass density (10590 kPa, x2 = 0.952): 649 ± 4 kg/m3
mass density (10600 kPa, x2 = 0.948): 666 ± 4 kg/m3
mass density (10630 kPa, x2 = 0.882): 754 ± 5 kg/m3
mass density (10640 kPa, x2 = 0.933): 693 ± 4 kg/m3
mass density (10780 kPa, x2 = 0.902): 733 ± 5 kg/m3
mass density (10800 kPa, x2 = 0.186): 785 ± 5 kg/m3
mass density (10880 kPa, x2 = 0.933): 699 ± 4 kg/m3
mass density (10920 kPa, x2 = 0.952): 663 ± 4 kg/m3
mass density (10950 kPa, x2 = 0.882): 761 ± 5 kg/m3
mass density (10980 kPa, x2 = 0.948): 679 ± 4 kg/m3
mass density (10990 kPa, x2 = 0.811): 801 ± 5 kg/m3
mass density (11000 kPa, x2 = 0.902): 736 ± 5 kg/m3
mass density (11060 kPa, x2 = 0.772): 811 ± 5 kg/m3
mass density (11160 kPa, x2 = 0.933): 707 ± 4 kg/m3
mass density (11260 kPa, x2 = 0.902): 740 ± 5 kg/m3
mass density (11280 kPa, x2 = 0.952): 678 ± 4 kg/m3
mass density (11440 kPa, x2 = 0.882): 764 ± 5 kg/m3
mass density (11460 kPa, x2 = 0.933): 714 ± 4 kg/m3
mass density (11480 kPa, x2 = 0.811): 805 ± 5 kg/m3
mass density (11480 kPa, x2 = 0.948): 696 ± 4 kg/m3
mass density (11500 kPa, x2 = 0.902): 744 ± 5 kg/m3
mass density (11640 kPa, x2 = 0.383): 806 ± 5 kg/m3
mass density (11760 kPa, x2 = 0.772): 815 ± 5 kg/m3
mass density (11760 kPa, x2 = 0.902): 751 ± 5 kg/m3
mass density (11780 kPa, x2 = 0.952): 694 ± 4 kg/m3
mass density (11800 kPa, x2 = 0.933): 724 ± 5 kg/m3
mass density (11870 kPa, x2 = 0.576): 825 ± 5 kg/m3
mass density (11870 kPa, x2 = 0.882): 769 ± 5 kg/m3
